Target: T1, Human SST5 somatostatin receptor (SSTR5) (Homo sapiens, UniProt P35346)
T1 construct: expressed in transfected cells; host or cells: HEK-293 EBNA
Assay: Filter plate assay for SST5 receptor, displacement of [125I]SST-14
Type: binding
Protocol: Receptor membrane preparations containing the desired cloned receptor (for example cloned human somatostatin receptor subtype 5, SSTR5) and radio-labeled ligand (for example 3-[^125I]iodotyrosyl^11 Somatostatin-14)) were diluted at the concentration required for testing and according to the specific parameters associated with the selected receptor-ligand combination, including receptor Bmax, ligand Kd and any other parameters necessary to optimize the experimental conditions. When tested for competition activity to the reference ligand, “compound 1” was mixed with membrane suspension and the radiolabeled reference ligand (with or without an excess of cold ligand to the receptor for determination of non-specific binding) and incubated at the temperature required by internal standard operating procedures. Following incubation, the binding reaction was stopped by the addition of ice-cold washing buffer and filtered on appropriate filters, which are then counted. Data analysis and curve-fitting was performed with XLfit (IDBS).
10 mM solutions of test compounds in 100% DMSO were prepared. ˜160 μl was used for each dilution (20 μl/well in triplicate).
A 1.25 mM assay stock was prepared by making a 1:8 dilution of the 10 mM solution. (To 30 μL of the 10 mM solution was added 210 μL milli-Q H2O. A 1:5 dilution series in milli-Q H2O was then prepared.
Assays were performed in triplicate at each concentration within the 1:5 dilution series: 250 μM, 50 μM, 10 μM, […], 0.4 μM, 0.08 μM, 0.016 μM, 0.0032 μM, etc. (for SST4 assay) and 125 μM, 10 μM, 2 μM, 1 μM, 0.5 μM, etc (for SST5 assay).
Human SST5 somatostatin receptor was transfected into HEK-293 EBNA cells. Membranes were suspended in assay buffer (50 mM Tris-HCl, 1 mM EGTA, 5 mM MgCl2, 10% sucrose, pH 7.5).
After thawing the frozen receptor preparation rapidly, receptors were diluted with binding buffer, homogenized, and kept on ice. • 1. Use Multiscreen glass fiber filter plates (Millipore, Cat No MAFCNOB10) precoated with o.5% PEI for ˜2 hr at 4° C. Before use add 200 μl/well assay buffer and filter using Multiscreen Separation System. • 2. Incubate 5.5 μg of membranes (40 μl of a 1:40 dilution), buffer and [^125I]SST-14 (4 nM, ˜80 000 cpm, 2000 Ci/mmol) in a total volume of 200 μl for 60 min at 25° C. […] Prepare serial dilutions (1:5) of compounds, as described above and instead of adding SST-14 in well, add 20 μl of compounds (Table 1). • 3. Filter using Multiscreen Separation System with 5×0.2 ml ice-cold Assay buffer. • 4. Remove the plastic underdrain and dry plate in oven for 1 hr at 40° C. • 5. Seal tape to the bottom of the plate. • 6. Add 50 μl/well scintillant (Supermix, Wallac, Cat No 1200-439). • 7. Seal and count in the BJET, program 2.
In primary screening experiments compounds were tested in duplicate for a particular concentration.

T1 sequence (P35346 whole entry): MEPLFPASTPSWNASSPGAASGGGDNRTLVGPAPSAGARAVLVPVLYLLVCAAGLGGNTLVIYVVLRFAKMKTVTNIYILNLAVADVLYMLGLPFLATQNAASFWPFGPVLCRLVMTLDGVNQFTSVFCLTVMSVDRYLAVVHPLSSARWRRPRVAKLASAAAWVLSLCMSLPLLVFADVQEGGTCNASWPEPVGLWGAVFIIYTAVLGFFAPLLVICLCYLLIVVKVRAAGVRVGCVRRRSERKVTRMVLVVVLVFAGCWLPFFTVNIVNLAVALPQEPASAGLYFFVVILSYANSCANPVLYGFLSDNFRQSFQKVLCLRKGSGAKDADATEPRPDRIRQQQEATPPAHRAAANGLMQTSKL

Row | SMILES | SSTR5 Inhib 0.5 uM % (inhibition of binding of SST-14 to SSTR5) [%] | SSTR5 Inhib 10 uM % (inhibition of binding of SST-14 to SSTR5) [%]
1 | COC1C(O)C(COCc2ccc3ccccc3c2)OC(OCc2ccc(Cl)cc2)C1NC(=O)C1CCCN1 (centres unmarked) [Compound 51] | 76 | 92
2 | COC[C@H]1OC(OCc2ccc3ccccc3c2)[C@H](NC(=O)CCNC(=N)N)[C@@H](OCc2ccc(-c3ccccc3)cc2)[C@@H]1O (some centres unmarked) [Compound 52] | 69 | 92
3 | COC[C@H]1OC(OCc2ccccc2)[C@H](NC(=O)CCNC(=N)N)[C@H](OCc2ccc3ccccc3c2)[C@@H]1O (some centres unmarked) [Compound 53] | 58 | 91
4 | COC[C@H]1OC(OCc2ccccc2)[C@H](NC(=O)CCN)[C@H](OCc2ccc(-c3ccccc3)cc2)[C@@H]1O (some centres unmarked) [Compound 54] | 60 | 91
5 | COC[C@H]1OC(OCc2ccc(-c3ccccc3)cc2)[C@H](NC(=O)CCCNC(=N)N)[C@@H](OCc2ccc(-c3ccccc3)cc2)[C@@H]1O (some centres unmarked) [Compound 55] | 71 | 91
6 | COC[C@H]1OC(OCc2ccc(Cl)cc2)[C@H](NC(=O)CCCNC(=N)N)[C@@H](OCc2ccc(Cl)cc2)[C@@H]1O (some centres unmarked) [Compound 56] | 57 | 91
7 | COC[C@H]1OC(OCc2ccc3ccccc3c2)[C@H](NC(=O)CCNC(=N)N)[C@H](OCc2ccc3ccccc3c2)[C@@H]1O (some centres unmarked) [Compound 57] | 64 | 91
8 | COC[C@H]1OC(OCc2ccc(-c3ccccc3)cc2)[C@H](NC(=O)CCCNC(=N)N)[C@@H](OCc2ccc(-c3ccccc3)cc2)[C@@H]1O (some centres unmarked) [Compound 58] | 65 | 91
9 | COC[C@H]1OC(OCc2ccccc2)[C@H](NC(=O)CCCN)[C@H](OCc2ccc(Cl)cc2)[C@@H]1O (some centres unmarked) [Compound 59] | 66 | 90
10 | COC[C@H]1OC(OCc2ccc3ccccc3c2)[C@H](NC(=O)CCCNC(=N)N)[C@H](OCc2ccc3ccccc3c2)[C@@H]1O (some centres unmarked) [Compound 60] | 57 | 90
11 | COC[C@H]1OC(OCc2ccc3ccccc3c2)[C@H](NC(=O)CCCN)[C@@H](OCc2ccc(Cl)cc2)[C@@H]1O (some centres unmarked) [Compound 61] | 61 | 90
12 | COC[C@H]1OC(OCCc2ccccc2)[C@H](NC(=O)CCCNC(=N)N)[C@H](OCc2ccc(Cl)cc2)[C@@H]1O (some centres unmarked) [Compound 62] | 61 | 90
13 | COC[C@H]1OC(OCc2ccc(-c3ccccc3)cc2)[C@H](NC(=O)CCCN)[C@@H](OCc2ccc(Cl)cc2)[C@@H]1O (some centres unmarked) [Compound 63] | 50 | 90
14 | COC[C@H]1OC(OCc2ccc3ccccc3c2)[C@H](NC(=O)CCCNC(=N)N)[C@H](OCc2ccccc2)[C@@H]1O (some centres unmarked) [Compound 64] | 57 | 90
15 | COC[C@H]1OC(OCCc2ccccc2)[C@H](NC(=O)CCCN)[C@@H](OCc2ccc(-c3ccccc3)cc2)[C@@H]1O (some centres unmarked) [Compound 65] | 61 | 90

Other lines, results leading:

Row | SSTR5 Inhib 0.5 uM % (inhibition of binding of SST-14 to SSTR5) [%] | SSTR5 Inhib 10 uM % (inhibition of binding of SST-14 to SSTR5) [%] | SMILES
16 | 61 | 89 | CSC1O[C@H](COCc2ccc(-c3ccccc3)cc2)[C@@H](O)[C@@H](OCc2ccc3ccccc3c2)[C@H]1NC(=O)CCN (some centres unmarked) [Compound 66]
17 | 48 | 89 | CO[C@H]1[C@H](O)[C@@H](COCc2ccc(-c3ccccc3)cc2)OC(OCc2ccc(Cl)cc2)[C@@H]1NC(=O)CCCNC(=N)N (some centres unmarked) [Compound 67]
18 | 46 | 89 | COC[C@H]1OC(OCc2ccc3ccccc3c2)[C@H](NC(=O)CCCN)[C@@H](OCc2ccccc2)[C@@H]1O (some centres unmarked) [Compound 68]
19 | 67 | 89 | CO[C@@H]1[C@H](O)[C@@H](COCc2ccc3ccccc3c2)OC(OCc2ccc(Cl)cc2)[C@@H]1NC(=O)C1CCCN(C(=N)N)C1 (some centres unmarked) [Compound 69]
20 | 18 | 89 | CO[C@H]1[C@H](O)[C@@H](COCc2ccc(-c3ccccc3)cc2)OC(OCc2ccc(-c3ccccc3)cc2)[C@@H]1NC(=O)CNC(=N)N (some centres unmarked) [Compound 70]
21 | 49 | 89 | COC[C@H]1OC(OCc2ccc(Cl)cc2)[C@H](NC(=O)CCNC(=N)N)[C@H](OCc2ccc(Cl)cc2)[C@@H]1O (some centres unmarked) [Compound 71]
22 | 51 | 89 | CSC1O[C@H](COCc2ccccc2)[C@@H](O)[C@@H](OCc2ccc3ccccc3c2)[C@H]1NC(=O)CNC(=N)N (some centres unmarked) [Compound 72]
23 | 56 | 89 | COC[C@H]1OC(OCCc2ccccc2)[C@H](NC(=O)CCCN)[C@@H](OCc2ccc3ccccc3c2)[C@@H]1O (some centres unmarked) [Compound 73]
24 | 64 | 89 | COC[C@H]1OC(OCc2ccc(-c3ccccc3)cc2)[C@H](NC(=O)CCCN)[C@@H](OCc2ccc(Cl)cc2)[C@@H]1O (some centres unmarked) [Compound 74]
25 | 61 | 89 | COC[C@H]1OC(OCc2ccc3ccccc3c2)[C@H](NC(=O)CCCNC(=N)N)[C@@H](OCc2ccc3ccccc3c2)[C@@H]1O (some centres unmarked) [Compound 75]
26 | 51 | 88 | COC[C@H]1OC(OCc2ccccc2)[C@H](NC(=O)CCCN)[C@H](OCc2ccc3ccccc3c2)[C@@H]1O (some centres unmarked) [Compound 76]
27 | 50 | 88 | COC[C@H]1OC(OCc2ccc(-c3ccccc3)cc2)[C@H](NC(=O)CCCNC(=N)N)[C@@H](OCc2ccc(-c3ccccc3)cc2)[C@@H]1O (some centres unmarked) [Compound 77]
28 | 43 | 88 | COC1C(O)C(COCc2ccc(Cl)cc2)OC(OCc2ccc(-c3ccccc3)cc2)C1NC(=O)CCNC(=N)N (centres unmarked) [Compound 78]
29 | 55 | 88 | COC1C(O)C(COCc2ccc3ccccc3c2)OC(OCc2ccc(Cl)cc2)C1NC(=O)C1CCN(C(=N)N)CC1 (centres unmarked) [Compound 79]
30 | 44 | 88 | COC[C@H]1OC(OCc2ccc(-c3ccccc3)cc2)[C@H](NC(=O)CCCN)[C@@H](OCc2ccc(-c3ccccc3)cc2)[C@@H]1O (some centres unmarked) [Compound 80]
31 | 60 | 87 | COC1C(O)C(COCc2ccc3ccccc3c2)OC(OCc2ccc3ccccc3c2)C1NC(=O)CCCN (centres unmarked) [Compound 81]
32 | 48 | 87 | COC[C@H]1OC(OCc2ccc3ccccc3c2)[C@H](NC(=O)CCCN)[C@@H](OCc2cccc(O)c2)[C@@H]1O (some centres unmarked) [Compound 82]
33 | 61 | 87 | CSC1OC(COCc2ccc(Cl)cc2)C(O)C(OCc2ccc(-c3ccccc3)cc2)C1NC(=O)CN (centres unmarked) [Compound 83]
34 | 54 | 87 | COC[C@H]1OC(OCc2ccc3ccccc3c2)[C@H](NC(=O)CCNC(=N)N)[C@H](OCc2ccccc2)[C@@H]1O (some centres unmarked) [Compound 85]
